Results taken from PubChem BioAssay (NCI).
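Values below derive from 48-hour exposures of cells grown in 96-well plates, with endpoints linearly interpolated between the two concentrations bracketing the appropriate inhibition level. Here, GI50 denotes the concentration required for 50% inhibition of growth. The concentration for full growth arrest is given as TGI.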

Experiments:
Test in all cases: NCI-60 cell line screen, 48 h
[1] = system: RXF 393 renal
[2] = system: HL-60(TB) leukemia
[3] = system: SR leukemia
[4] = system: SK-OV-3 ovarian
[5] = system: HCT-15 colon
[6] = system: HT29 colon
[7] = system: COLO 205 colon
[8] = system: OVCAR-4 ovarian
[9] = system: SK-MEL-5 melanoma
[10] = system: DU-145 prostate

Row | SMILES | GI50 [1] [µM] | TGI [1] [µM] | GI50 [2] [µM] | TGI [2] [µM] | GI50 [3] [µM] | TGI [3] [µM] | GI50 [4] [µM] | TGI [4] [µM] | GI50 [5] [µM] | TGI [5] [µM] | GI50 [6] [µM] | TGI [6] [µM] | GI50 [7] [µM] | TGI [7] [µM] | GI50 [8] [µM] | TGI [8] [µM] | GI50 [9] [µM] | TGI [9] [µM] | GI50 [10] [µM] | TGI [10] [µM]
1 | CC(C)[C@@H]1C=C2CC[C@H]3[C@](C)(CN)CCC[C@]3(C)[C@H]2CC1 | 1.77 | 3.56 | 1.38 | 4.39 | 2.78 | 12.4 | 13.2 | 26 | 2.08 | 4.94 | 1.84 | 3.64 | 1.7 | 3.17 | 15.1 | 34.3 | 13.1 | 25.8 | 2.05 | 4.08
2 | CCN1C(=O)N(c2ccccc2)C2NC(=S)N(/N=C/C=C/c3ccccc3OC)C21 (stereo not drawn) | 0.916 | > 100 | 0.0756 | 0.181 | 0.086 | > 48.5 | – | – | 0.102 | > 100 | 0.111 | > 100 | 0.21 | 0.487 | 0.263 | > 67 | 0.099 | 0.607 | 0.115 | > 34.4
3 | CN(C)c1cc(NN=C(c2ccc(O)cc2)c2ccc(O)cc2)c([N+](=O)[O-])cc1[N+](=O)[O-] | 11.3 | 26.9 | 4.98 | 55.8 | 3.15 | 22.8 | 14.4 | 36.6 | 4.02 | 17.7 | 10 | 23.7 | 8.52 | 24.7 | 5.77 | 28 | 3.17 | 14.4 | 10.2 | 23.6
4 | CCN(Cc1ccc(F)cc1)c1cc(Cl)c(CO)c(Cl)c1 | 8.71 | 21.6 | 13 | 32.6 | 15.4 | 39.6 | 15.2 | 28.7 | 15.7 | 36.6 | 16.2 | 33.2 | 17.3 | 31.4 | 10.7 | 22.5 | 13.5 | 26.5 | 16.8 | 31.6
5 | O=C(O)c1ccc2c(c1C(=O)O)C(=O)OC2(c1ccc(O)cc1)c1ccc(O)cc1 | – | > 100 | – | > 100 | – | > 100 | – | > 100 | – | > 100 | – | > 100 | – | > 100 | – | > 100 | – | > 100 | – | > 100
6 | CCN(C(=O)N1CCN(c2cc3c(cc2F)c(=O)c(C(=O)O)cn3C2CC2)CC1)c1nc(-c2ccc(Cl)cc2)cs1 | 0.978 | 7.51 | 0.669 | 1.77 | 0.272 | 0.897 | 1.83 | 6.46 | 0.967 | > 100 | 1.06 | > 100 | 2 | 6.17 | 1.48 | > 57.1 | 1.99 | 15.9 | 1.83 | > 100
7 | COC[C@H]1Cn2cc(-c3nc(Nc4ccnn4C)ncc3C)nc2C(=O)N1Cc1ccc(F)c(F)c1 | 1.66 | > 100 | 0.471 | 10.6 | > 100 | > 100 | 35.9 | > 100 | 28.3 | > 100 | 0.0436 | > 100 | 0.0203 | > 100 | 17.8 | > 100 | 9.51 | > 83.3 | 22.7 | > 100
